This passage reports IC50 results from patent publication US10562891B2, “Quinazolinones as PARP14 inhibitors” (Ribon Therapeutics Inc., priority 2017, dated 2020).

pIC50: −log10 of the molar value.

The target in this test is catalytic domain of human PARP14 (Homo sapiens (Human), UniProt Q460N5). The test can be described thus: Enzymatic assay for inhibition of PARP14 (DELFIA, auto-modification with biotin-NAD). The format is biochemical. The conditions noted are these: auto-modification of PARP14 by biotin-NAD, 50 nM PARP14, 3 μM biotin-NAD. The method, boiled down: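 DELFIA auto-modification read-out: europium-streptavidin bound to biotin-NAD incorporated onto nickel-captured His-TEV PARP14 catalytic domain. Compound preincubated 30 min, then 50 nM enzyme with 3 μM biotin-NAD reacted 3 h, all at 25 °C, pH 8, then NAD quench. Percent inhibition normalized to rucaparib/DMSO wells, fitted (4- or 3-parameter) for IC50.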
catalytic domain of human PARP14, sequence (Q460N5 1611-1801): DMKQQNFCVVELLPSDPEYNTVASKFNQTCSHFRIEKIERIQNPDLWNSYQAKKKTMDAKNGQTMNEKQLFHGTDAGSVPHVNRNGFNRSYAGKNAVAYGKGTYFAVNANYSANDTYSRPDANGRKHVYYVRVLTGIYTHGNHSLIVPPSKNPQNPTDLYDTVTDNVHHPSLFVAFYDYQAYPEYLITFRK
In the case of `O=c1[nH]c(CSC2CCOCC2)nc2cc(OCc3ccccc3)ccc12` [Example 96, 7-(Benzyloxy)-2-(((tetrahydro-2H-pyran-4-yl)thio)methyl)quinazolin-4(3H)-one], the negative-log IC50 (pIC50) – broadly, the IC50 on a negative log10 scale, so that one unit is a factor of ten – is 5.00 to 6.00.
As for `O=c1[nH]c(CSC2CCC(O)CC2)nc2cc(Nc3ccccc3)ccc12` (centres unmarked) [Example 97, 2-(((4-Hydroxycyclohexyl)thio)methyl)-7-(phenylamino)quinazolin-4(3H)-one], the pIC50 is 5.00 to 6.00.
For `O=c1[nH]c(CS[C@H]2CC[C@H](O)CC2)nc2cc(Nc3ccccc3)ccc12` [Example 98, 2-(((trans-4-Hydroxycyclohexyl)thio)methyl)-7-(phenylamino)quinazolin-4(3H)-one] the value was > 6.00.
For `O=c1[nH]c(CS[C@H]2CC[C@@H](O)CC2)nc2cc(Nc3ccccc3)ccc12` [Example 99, 2-(((cis-4-Hydroxycyclohexyl)thio)methyl)-7-(phenylamino)quinazolin-4(3H)-one] the value was 5.00 to 6.00; for `O=c1[nH]c(CS[C@H]2CC[C@@H](O)CC2)nc2cc(Nc3cccnc3)ccc12` [Example 100, 2-(((cis-4-Hydroxycyclohexyl)thio)methyl)-7-(pyridin-3-ylamino)quinazolin-4(3H)-one], > 6.00; for `O=c1[nH]c(CS[C@H]2CC[C@H](O)CC2)nc2cc(Nc3cccnc3)ccc12` [Example 101, 2-(((trans-4-Hydroxycyclohexyl)thio)methyl)-7-(pyridin-3-ylamino)quinazolin-4(3H)-one], > 6.00.
For `O=c1[nH]c(CS[C@H]2CC[C@H](O)CC2)nc2cc(NC3CCCC3)ccc12` [Example 102, 7-(Cyclopentylamino)-2-(((trans-4-hydroxycyclohexyl)thio)methyl) quinazolin-4(3H)-one] the value was > 6.00; for `O=c1[nH]c(CS[C@H]2CC[C@@H](O)CC2)nc2cc(NC3CCCC3)ccc12` [Example 103, 7-(Cyclopentylamino)-2-(((cis-4-hydroxycyclohexyl)thio)methyl) quinazolin-4(3H)-one], > 6.00; for `O=c1[nH]c(CS[C@H]2CC[C@H](CO)CC2)nc2cc(Nc3ccccc3)ccc12` [Example 104, 2-(((trans-4-(Hydroxymethyl)cyclohexyl)thio)methyl)-7-(phenylamino) quinazolin-4(3H)-one], 5.00 to 6.00.
For `O=c1[nH]c(CS[C@H]2CC[C@@H](CO)CC2)nc2cc(Nc3ccccc3)ccc12` [Example 105, 2-(((cis-4-(Hydroxymethyl)cyclohexyl)thio)methyl)-7-(phenylamino) quinazolin-4(3H)-one], the negative-log IC50 (pIC50) was > 6.00.
For `O=c1[nH]c(CS[C@H]2CC[C@@H](CO)CC2)nc2cc(Nc3cccnc3)ccc12` [Example 106, 2-(((cis-4-(Hydroxymethyl)cyclohexyl)thio)methyl)-7-(pyridin-3-ylamino) quinazolin-4(3H)-one] the value was 5.00 to 6.00; for `O=c1[nH]c(CS[C@H]2CC[C@H](CO)CC2)nc2cc(Nc3cccnc3)ccc12` [Example 107, 2-(((trans-4-(Hydroxymethyl)cyclohexyl)thio)methyl)-7-(pyridin-3-ylamino) quinazolin-4(3H)-one], > 6.00.
Consider `O=c1[nH]c(CSC2CCOCC2)nc2cc(NC3CCCCC3)ccc12` [Example 108, 7-(Cyclohexylamino)-2-(((tetrahydro-2H-pyran-4-yl)thio)methyl)quinazolin-4(3H)-one], for which the negative logarithm of the IC50 (pIC50) was > 6.00.
`CN(C)c1ccc2c(=O)[nH]c(CSC3CCOCC3)nc2c1` [Example 109, 7-(Dimethylamino)-2-(((tetrahydro-2H-pyran-4-yl)thio)methyl)quinazolin-4(3H)-one] showed a negative logarithm of the IC50 (pIC50) of 5.00 to 6.00.
For `CNc1ccc2c(=O)[nH]c(CSC3CCOCC3)nc2c1` [Example 110, 7-(Methylamino)-2-(((tetrahydro-2H-pyran-4-yl)thio)methyl)quinazolin-4(3H)-one] the value was 5.00 to 6.00; for `O=c1[nH]c(CSC2CCOCC2)nc2cc(N3CCOCC3)ccc12` [Example 111, 7-Morpholino-2-(((tetrahydro-2H-pyran-4-yl)thio)methyl)quinazolin-4(3H)-one], 5.00 to 6.00; for `CN1CCN(c2ccc3c(=O)[nH]c(CSC4CCOCC4)nc3c2)CC1` [Example 112, 7-(4-Methylpiperazin-1-yl)-2-(((tetrahydro-2H-pyran-4-yl)thio)methyl)quinazolin-4(3H)-one], 5.00 to 6.00.
For `CN1CCC(Nc2ccc3c(=O)[nH]c(CSC4CCOCC4)nc3c2)CC1` [Example 113, 7-((1-Methylpiperidin-4-yl)amino)-2-(((tetrahydro-2H-pyran-4-yl)thio)methyl)quinazolin-4(3H)-one] the value was < 5.00.
For `O=c1[nH]c(CSC2CCOCC2)nc2cc(NC3CCOCC3)ccc12` [Example 114, 7-((Tetrahydro-2H-pyran-4-yl)amino)-2-(((tetrahydro-2H-pyran-4-yl)thio)methyl)quinazolin-4(3H)-one] the value was 5.00 to 6.00; for `O=c1[nH]c(CSC2CCOCC2)nc2cc(NC3CCCC3)ccc12` [Example 115, 7-(Cyclopentylamino)-2-(((tetrahydro-2H-pyran-4-yl)thio)methyl)quinazolin-4(3H)-one], > 6.00.
Regarding `CC(C)Nc1ccc2c(=O)[nH]c(CSC3CCOCC3)nc2c1` [Example 116, 7-(Isopropylamino)-2-(((tetrahydro-2H-pyran-4-yl)thio)methyl)quinazolin-4(3H)-one], the pIC50 is > 6.00.
For `O=c1[nH]c(CSC2CCOCC2)nc2cc(NCc3ccncc3)ccc12` [Example 117, 7-((Pyridin-4-ylmethyl)amino)-2-(((tetrahydro-2H-pyran-4-yl)thio)methyl)quinazolin-4(3H)-one] the value was 5.00 to 6.00; for `O=c1[nH]c(CSC2CCOCC2)nc2cc(NCc3ccccn3)ccc12` [Example 118, 7-((Pyridin-2-ylmethyl)amino)-2-(((tetrahydro-2H-pyran-4-yl)thio)methyl)quinazolin-4(3H)-one], 5.00 to 6.00.
For `O=c1[nH]c(CSC2CCOCC2)nc2cc(NCc3ccccc3)ccc12` [Example 119, 7-(Benzylamino)-2-(((tetrahydro-2H-pyran-4-yl)thio)methyl)quinazolin-4(3H)-one] the value was > 6.00; for `CC(Nc1ccc2c(=O)[nH]c(CSC3CCOCC3)nc2c1)c1ccccc1` (centres unmarked) [Example 120, 7-((1-Phenylethyl)amino)-2-(((tetrahydro-2H-pyran-4-yl)thio)methyl)quinazolin-4(3H)-one], < 5.00.
Consider `O=c1[nH]c(CSC2CCOCC2)nc2cc(NC3CCOC3)ccc12` (centres unmarked) [Example 121, 2-(((Tetrahydro-2H-pyran-4-yl)thio)methyl)-7-((tetrahydrofuran-3-yl)amino)quinazolin-4(3H)-one], for which the pIC50 was > 6.00.
For `O=c1[nH]c(CSC2CCOCC2)nc2cc(NC3CCC3)ccc12` [Example 122, 7-(Cyclobutylamino)-2-(((tetrahydro-2H-pyran-4-yl)thio)methyl)quinazolin-4(3H)-one] the value was > 6.00; for `O=c1[nH]c(CSC2CCOCC2)nc2cc(NCc3cccnc3)ccc12` [Example 123, 7-((Pyridin-3-ylmethyl)amino)-2-(((tetrahydro-2H-pyran-4-yl)thio)methyl)quinazolin-4(3H)-one], > 6.00; for `O=c1[nH]c(CSC2CCOCC2)nc2cc(NC3CC3)ccc12` [Example 124, 7-(Cyclopropylamino)-2-(((tetrahydro-2H-pyran-4-yl)thio)methyl)quinazolin-4(3H)-one], > 6.00.
For `CN(c1ccc2c(=O)[nH]c(CSC3CCOCC3)nc2c1)C1CCCCC1` [Example 125, 7-(Cyclohexyl(methyl)amino)-2-(((tetrahydro-2H-pyran-4-yl)thio)methyl)quinazolin-4(3H)-one] the value was 5.00 to 6.00.
For `O=c1[nH]c(CSC2CCOCC2)nc2cc(NC3CCCN(Cc4ccccc4)C3)ccc12` (centres unmarked) [Example 126, 7-[(1-Benzyl-3-piperidyl)amino]-2-(tetrahydropyran-4-ylsulfanylmethyl)-3H-quinazolin-4-one] the value was 5.00 to 6.00; for `O=c1[nH]c(CSC2CCOCC2)nc2cc(NC3CCCNC3)ccc12` (centres unmarked) [Example 127, 7-(3-Piperidylamino)-2-(tetrahydropyran-4-ylsulfanylmethyl)-3H-quinazolin-4-one], < 5.00.
Regarding `O=c1[nH]c(CSC2CCOCC2)nc2cc(NC3CCN(Cc4ccccc4)CC3)ccc12` [Example 128, 7-((1-Benzylpiperidin-4-yl)amino)-2-(((tetrahydro-2H-pyran-4-yl)thio)methyl) quinazolin-4(3H)-one], the negative-log IC50 (pIC50) is 5.00 to 6.00.
For `O=c1[nH]c(CSC2CCOCC2)nc2cc(NC3CCNCC3)ccc12` [Example 129, 7-(Piperidin-4-ylamino)-2-(((tetrahydro-2H-pyran-4-yl)thio)methyl) quinazolin-4(3H)-one] the value was 5.00 to 6.00; for `O=c1[nH]c(CSC2CCOCC2)nc2cc(NC3CCNC3)ccc12` (centres unmarked) [Example 130, 7-(Pyrrolidin-3-ylamino)-2-(((tetrahydro-2H-pyran-4-yl)thio)methyl) quinazolin-4(3H)-one], 5.00 to 6.00; for `CC(=O)N1CCC(Nc2ccc3c(=O)[nH]c(CSC4CCOCC4)nc3c2)CC1` [Example 131, 7-((1-Acetylpiperidin-4-yl)amino)-2-(((tetrahydro-2H-pyran-4-yl)thio)methyl) quinazolin-4(3H)-one], 5.00 to 6.00.
For `CC(=O)N1CCCC(Nc2ccc3c(=O)[nH]c(CSC4CCOCC4)nc3c2)C1` (centres unmarked) [Example 132, 7-((1-Acetylpiperidin-3-yl)amino)-2-(((tetrahydro-2H-pyran-4-yl)thio)methyl)quinazolin-4(3H)-one] the value was < 5.00; for `CN1CCCC(Nc2ccc3c(=O)[nH]c(CSC4CCOCC4)nc3c2)C1` (centres unmarked) [Example 133, 7-((1-Methylpiperidin-3-yl)amino)-2-(((tetrahydro-2H-pyran-4-yl)thio)methyl)quinazolin-4(3H)-one], < 5.00.
